PMC8119466, “A screen of FDA-approved drugs identifies inhibitors of protein tyrosine phosphatase 4A3 (PTP4A3 or PRL-3)” (Scientific Reports, 2021)
Where a name gives a salt, the structure may show the parent alone. Read-outs that look alike come from different tables or passages of the source.

Tests used:
Type in all cases: biochemical
[1] = molecular target: T1, recombinant PRL-3 (Homo sapiens, UniProt O75365); assay: In vitro phosphatase assay (DiFMUP hydrolysis), PRL-3; further: test concentration or dose not given here
T1 construct: 6xHis (N, cleaved yes); made in house; host or cells: E. coli One Shot BL21 Star

[2] = molecular target: T2, recombinant PRL-2 (Homo sapiens, UniProt Q12974); assay: In vitro phosphatase assay (DiFMUP hydrolysis), PRL-2;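 further: PRL-2 activity read as DiFMUP hydrolysis after 20 min at room temperature with drug, enzyme first pre-reduced at 4 °C for 20 min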
T2 construct: 6xHis (N, cleaved yes); made in house; host or cells: E. coli One Shot BL21 Star
T2 sequence (Q12974 1-167): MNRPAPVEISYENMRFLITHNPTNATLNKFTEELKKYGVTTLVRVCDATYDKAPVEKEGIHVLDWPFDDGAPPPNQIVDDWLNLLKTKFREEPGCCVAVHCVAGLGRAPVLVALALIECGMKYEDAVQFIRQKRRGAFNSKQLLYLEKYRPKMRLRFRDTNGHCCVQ

[3] = molecular target: T3, recombinant PRL-1 (Homo sapiens, UniProt Q93096); assay: In vitro phosphatase assay (DiFMUP hydrolysis), PRL-1; further: test concentration or dose not given here
T3 construct: 6xHis (N, cleaved yes); made in house; host or cells: E. coli One Shot BL21 Star
T3 sequence (Q93096 1-173): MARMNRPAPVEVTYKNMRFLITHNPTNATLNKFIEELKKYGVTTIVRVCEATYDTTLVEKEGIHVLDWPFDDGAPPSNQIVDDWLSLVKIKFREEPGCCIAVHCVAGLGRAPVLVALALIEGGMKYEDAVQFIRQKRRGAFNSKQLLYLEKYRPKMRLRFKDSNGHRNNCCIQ

[4] = FDA-approved drug screen, compared to DMSO
[5] = FDA-approved drug screen, activity compared to DMSO

T1 sequence (O75365 whole entry): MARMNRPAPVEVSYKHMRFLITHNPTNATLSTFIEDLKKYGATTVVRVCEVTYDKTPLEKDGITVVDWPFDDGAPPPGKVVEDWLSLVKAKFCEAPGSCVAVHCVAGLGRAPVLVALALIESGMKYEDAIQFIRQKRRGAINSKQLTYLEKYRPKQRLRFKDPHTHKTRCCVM

SMILES | % Phosphatase Activity (compared to DMSO) PRL-3 [1, 4] [%] | % Phosphatase Activity (compared to DMSO) PRL-2 [2, 4] [%] | % Phosphatase Activity (compared to DMSO) PRL-1 [3, 4] [%] | other results
CO[C@H]1/C=C/O[C@@]2(C)Oc3c(C)c(O)c4c(O)c(c(/C=N/N5CCN(C6CCCC6)CC5)c(O)c4c3C2=O)NC(=O)/C(C)=C\C=C\[C@H](C)[C@H](O)[C@@H](C)[C@@H](O)[C@@H](C)[C@H](OC(C)=O)[C@@H]1C [Rifapentine] | 74 | 57 | 61 | 
CCN1CCCC1CNC(=O)c1cc(S(=O)(=O)CC)c(N)cc1OC (stereo not drawn) [Amisulpride] | 74 | 89 | 94 | 
COc1ccc(CN(CCN(C)C)c2ccccn2)cc1 [Pyrilamine Maleate] | 98 | 111 | 94 | 
COC(=O)C1=C(C)NC(C)=C(C(=O)OCCN(C)Cc2ccccc2)C1c1cccc([N+](=O)[O-])c1 (stereo not drawn) [Nicardipine HCl] | 68 | 80 | 85 | 
CN1CCN(c2ccc(C(=O)Nc3n[nH]c4ccc(Cc5cc(F)cc(F)c5)cc34)c(NC3CCOCC3)c2)CC1 [Entrectinib (RXDX-101)] | 180 | 282 | 344 | 
Nc1ncnc2c1ncn2[C@@H]1O[C@H](CO)[C@@H](O)[C@@H]1O [Vidarabine] |  |  |  | % Phosphatase Activity (compared to DMSO) PRL-3 [1, 5]: 121%; % Phosphatase Activity (compared to DMSO) PRL-2 [2, 5]: 116%; % Phosphatase Activity (compared to DMSO) PRL-1 [3, 5]: 106%
CCN(CCCc1ccccc1)CCCc1ccccc1 [Alverine Citrate] | 95 | 107 | 97 | 
COCCCN1CCC(NC(=O)c2cc(Cl)c(N)c3c2OCC3)CC1.O=C(O)CCC(=O)O [Prucalopride Succinat] | 85 | 77 | 76 | 
CCCCC(=O)N(Cc1ccc(-c2ccccc2-c2nnn[nH]2)cc1)[C@H](C(=O)O)C(C)C [Valsartan] |  |  |  | % Phosphatase Activity (compared to DMSO) PRL-3 [1, 5]: 101%; % Phosphatase Activity (compared to DMSO) PRL-2 [2, 5]: 115%; % Phosphatase Activity (compared to DMSO) PRL-1 [3, 5]: 86%
COc1ccccc1OCC(O)COC(N)=O (stereo not drawn) [Methocarbamol] | 100 | 91 | 92 | 
CC1(C)S[C@@H]2[C@H](NC(=O)[C@H](N)c3ccc(O)cc3)C(=O)N2[C@H]1C(=O)[O-].[Na+] [Amoxicillin Sodium] |  |  |  | % Phosphatase Activity (compared to DMSO) PRL-3 [1]: 80%; % Phosphatase Activity (compared to DMSO) PRL-2 [2]: 114%; % Phosphatase Activity (compared to DMSO) PRL-1 [3]: 97%
CCOc1ccccc1OC(c1ccccc1)C1CNCCO1.CS(=O)(=O)O (stereo not drawn) [Reboxetine mesylate] | 99 | 118 | 125 | 
O=C(Nc1cccc2c(=O)cc(-c3nnn[nH]3)oc12)c1ccc(OCCCCc2ccccc2)cc1 [Pranlukast] | 54 | 205 | 147 | 
Cc1ccc(-c2ncc(Cl)cc2-c2ccc(S(C)(=O)=O)cc2)cn1 [Etoricoxib] | 91 | 102 | 93 | 
CO/N=C(\C(=O)N[C@@H]1C(=O)N2C(C(=O)O)=C(COC(C)=O)CS[C@H]12)c1csc(N)n1 [Cefotaxime sodium] | 91 | 118 | 112 | 
CCOC(=O)[C@H](CCc1ccccc1)N[C@@H](C)C(=O)N1CCC[C@H]1C(=O)O [Enalapril Maleate] | 93 | 92 | 83 | 
COc1cc2nccc(Oc3ccc(NC(=O)NC4CC4)c(Cl)c3)c2cc1C(N)=O [Lenvatinib (E7080)] | 87 | 85 | 96 | 
CC(CCc1ccccc1)NCC(O)c1ccc(O)c(C(N)=O)c1 (stereo not drawn) [Labetalol HCl] | 110 | 154 | 156 | 

SMILES | % Phosphatase Activity (compared to DMSO) PRL-3 [1, 4] [%] | % Phosphatase Activity (compared to DMSO) PRL-2 [2, 4] [%] | % Phosphatase Activity (compared to DMSO) PRL-1 [3, 4] [%] | other results
COc1ccc2c(c1)c(CC(=O)OCC(=O)O)c(C)n2C(=O)c1ccc(Cl)cc1 [Acemetacin] | 94 | 121 | 93 | 
O=C(Nc1nc2cccc(-c3ccc(CN4CCS(=O)(=O)CC4)cc3)n2n1)C1CC1 [Filgotinib (GLPG0634)] | 92 | 81 | 102 | 
CC(=O)Oc1cc(C(F)(F)F)ccc1C(=O)O [Triflusal] |  |  |  | % Phosphatase Activity (compared to DMSO) PRL-3 [1, 5]: 78%; % Phosphatase Activity (compared to DMSO) PRL-2 [2, 5]: 105%; % Phosphatase Activity (compared to DMSO) PRL-1 [3, 5]: 108%
Cc1cccc(C)c1OCC(=O)N[C@@H](Cc1ccccc1)[C@@H](O)C[C@H](Cc1ccccc1)NC(=O)[C@H](C(C)C)N1CCCNC1=O [Lopinavir] | 62 | 101 | 90 | 
CCN(CC)CCNC(=O)c1ccc(N)cc1 [Procainamide HCl] | 75 | 127 | 94 | 
CC(C)C[C@H](NC(=O)[C@H](CCc1ccccc1)NC(=O)CN1CCOCC1)C(=O)N[C@@H](Cc1ccccc1)C(=O)N[C@@H](CC(C)C)C(=O)[C@@]1(C)CO1 [Carfilzomib (PR-171)] | 94 | 88 | 97 | 
Cc1cn(-c2cc(NC(=O)c3ccc(C)c(Nc4nccc(-c5cccnc5)n4)c3)cc(C(F)(F)F)c2)cn1 [Nilotinib (AMN-107)] | 76 | 92 | 83 | 
Br.COc1ccc2c(c1)[C@]13CCCC[C@@H]1[C@H](C2)N(C)CC3.O [Dextromethorphan (hydrobromide hydrate)] | 92 | 118 | 104 | 
Nc1ncn([C@@H]2O[C@H](CO)[C@@H](O)[C@H]2O)c(=O)n1 [Azacitidine] | 89 | 93 | 78 | 
Cl.c1ccc(C2CN3CCSC3=N2)cc1 (stereo not drawn) [Tetramisole HCl] |  |  |  | % Phosphatase Activity (compared to DMSO) PRL-3 [1]: 102%; % Phosphatase Activity (compared to DMSO) PRL-2 [2]: 83%; % Phosphatase Activity (compared to DMSO) PRL-1 [3]: 97%
CCCc1nn(C)c2c(=O)[nH]c(-c3cc(S(=O)(=O)N4CCN(C)CC4)ccc3OCC)nc12 [Sildenafil] |  |  |  | % Phosphatase Activity (compared to DMSO) PRL-3 [1, 5]: 99%; % Phosphatase Activity (compared to DMSO) PRL-2 [2, 5]: 72%; % Phosphatase Activity (compared to DMSO) PRL-1 [3, 5]: 75%
CC1Cc2ccccc2N1NC(=O)c1ccc(Cl)c(S(N)(=O)=O)c1 (stereo not drawn) [Indapamide] | 117 | 105 | 98 | 
Cc1ccc(C(=O)c2ccc(CC(=O)O)n2C)cc1 [Tolmetin Sodium] |  |  |  | % Phosphatase Activity (compared to DMSO) PRL-3 [1, 5]: 111%; % Phosphatase Activity (compared to DMSO) PRL-2 [2, 5]: 79%; % Phosphatase Activity (compared to DMSO) PRL-1 [3, 5]: 95%
CCCCCCCCCC(=O)N[C@@H](Cc1c[nH]c2ccccc12)C(=O)N[C@H](CC(N)=O)C(=O)N[C@@H](CC(=O)O)C(=O)N[C@@H]1C(=O)NCC(=O)N[C@@H](CCCN)C(=O)N[C@@H](CC(=O)O)C(=O)N[C@H](C)C(=O)N[C@@H](CC(=O)O)C(=O)NCC(=O)N[C@H](CO)C(=O)N[C@@H]([C@H](C)CC(=O)O)C(=O)N[C@@H](CC(=O)c2ccccc2N)C(=O)O[C@@H]1C [Daptomycin] | 95 | 75 | 90 | 
CCCCCCCCCC(=O)O[C@H]1CC[C@H]2[C@@H]3CCC4=CC(=O)CC[C@@H]4[C@H]3CC[C@]12C [Nandrolone decanoate] | 90 | 94 | 93 | 
Cc1cn(-c2cc(NC(=O)c3ccc(C)c(Nc4nccc(-c5cnccn5)n4)c3)cc(C(F)(F)F)c2)cn1 [Radotinib] | 89 | 83 | 96 | 
O=C1O[C@H](CO)[C@@H](O)[C@H](O)[C@H]1O [Gluconolactone] | 82 | 98 | 103 | 
